# Laboratory results from US20240358681A1, “METHODS OF USE OF PPAR AGONIST COMPOUNDS AND PHARMACEUTICAL COMPOSITIONS THEREOF” (Mitobridge, Inc., priority 2021, published 2024).
# Experiments:
# Type in all cases: cell-based, human
# [1] = system: LHON/Leigh cells; experiment: Mitochondrial fatty acid oxidation assay by high-resolution respirometry (palmitate-mediated OXPHOS); settings: Leigh/LHON cell line, 24 hours treatment; FIG. 4B
# Protocol: LHON/Leigh cells were treated with DMSO or Compound (I) in complete media supplemented with 0.5 mM carnitine for 24 hours prior to assaying. Treated cells were trypsinized, collected in Krebs-Henseleit Buffer (KHB) and pelleted.
# Palmitate-mediated OXPHOS was measured using an Oxygraph-2k (Oroboros Instruments). Cells (1×10^6) in KHB were loaded into each chamber with 250 μM BSA or BSA-conjugated palmitate. KHB was added to reach a final volume of 2 mL. Respiration was measured at 37° C. as previously described in Zhang, Z., et al., Primary respiratory chain disease causes tissue-specific dysregulation of the global transcriptome and nutrient-sensing signaling network. (1932-6203). Briefly, BSA and BSA-conjugated palmitate treated cells were analyzed simultaneously in two separate chambers. […]
# Data were analyzed using DatLab6 software. […] Non-mitochondrial respiration was measured after addition of Rotenone and Antimycin A sequentially (ROX, residual oxygen consumption, background) and subtracted from maximal respiration values. […]
# [2] = system: MERRF tRNA-Lys 8344 cybrids; experiment: Seahorse mitochondrial fatty acid oxidation; settings: MERRF cybrid cell line, FIG. 4B
# Protocol: (§1) FAO was measured using a Seahorse XF96 (Seahorse Biosciences). MELAS m.3243A>G fibroblasts, KSS fibroblasts, and MERRF tRNA-Lys 8344 cybrids were treated with DMSO or Compound (I) 8 hours after seeding into flasks. 24 hours after initial treatment, media was changed to complete media with DMSO or Compound (I) with reduced glucose (1.1 mM for primary fibroblasts and 5.5 mM for cybrids) and 0.5 mM carnitine. After 48 hours after initial treatment, cells were plated into 96-well cell culture microplates at a density of 40,000 cells per well. FAO assay was initiated 8 hours after plating.
# (§2) 200 μL of KHB was added to the blank wells and 200 μL KHB mixed with control BSA (final 0.074 mM) or BSA-palmitate (final 0.074 mM BSA, 500 μM palmitate was added to the appropriate wells. Stress test components compounds are added in the following sequential order; 1) Oligomycin, 2) FCCP, and 3) Rotenone and Antimycin A for final concentrations of 2.5 μM, 6 μM and 1 μM, respectively. Oxidation of palmitate was assessed using the same ratio as LHON/Leigh fibroblasts.
# [3] = system: MELAS m.3243A>G fibroblasts; experiment: Seahorse mitochondrial fatty acid oxidation
# Protocol: as §1, §2
# [4] = system: KSS fibroblasts; experiment: Seahorse mitochondrial fatty acid oxidation
# Protocol: as §1, §2
compound,measurement,setting,value
"Cc1cnc(-c2ccc(C(F)(F)F)cc2)n1Cc1ccccc1OCCC[C@@H](C)CC(=O)O [Compound (I), (R)-3-Methyl-6-(2-((5-methyl-2-(4-(trifluoromethyl)phenyl)-1H-imidazol-1-yl)methyl)-phenoxy)hexanoic acid]",fatty acid-mediated OXPHOS,[1],significantly increased
same,fatty acid mediated OXPHOS response,[2]; 30 nM,less pronounced
same,"fatty acid mediated OXPHOS, dose response",[2],dose-dependent trend
same,"fatty acid-mediated OXPHOS, dose response","[3]; MELAS patient fibroblasts, two biological replicates, FIG. 4B",trending dose response
same,increase in fatty acid mediated OXPHOS,"[3]; MELAS, 30 nM",thirty percent or greater
same,restoration to the fatty acid-mediated OXPHOS of healthy donor fibroblasts,"[3]; MELAS, 30 nM",partial
same,"fatty acid-mediated OXPHOS, dose response","[4]; KSS patient fibroblasts, two biological replicates, FIG. 4B",trending dose response
same,increase in fatty acid mediated OXPHOS,"[4]; KSS, 30 nM",thirty percent or greater
same,restoration to the fatty acid-mediated OXPHOS of healthy donor fibroblasts,"[4]; KSS, 30 nM",near complete restoration
